Reference: ChEMBL document CHEMBL1142005, “Utilization of a nitrobenzoxadiazole (NBD) fluorophore in the design of a Grb2 SH2 domain-binding peptide mimetic” (Bioorg Med Chem Lett, 2005)

Tests used:
[1] = molecular target: T1, Growth factor receptor-bound protein 2 (Homo sapiens, UniProt P62993); assay: First order rate constant (koff) for human growth factor receptor bound protein 2
Target sequence in this assay (P62993 whole entry, looked up): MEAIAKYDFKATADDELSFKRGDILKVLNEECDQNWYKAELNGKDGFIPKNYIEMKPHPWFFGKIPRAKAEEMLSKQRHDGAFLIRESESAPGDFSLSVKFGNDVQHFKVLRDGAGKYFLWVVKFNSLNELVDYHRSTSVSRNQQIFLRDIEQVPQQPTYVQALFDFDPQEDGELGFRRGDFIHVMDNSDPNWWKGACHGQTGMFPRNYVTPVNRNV

[2] = molecular target: T1, Growth factor receptor-bound protein 2; assay: Apparent dissociation constant for human growth factor receptor bound protein 2
Target sequence in this assay (P62993 whole entry): as the sequence (P62993 whole entry, looked up) above

[3] = molecular target: T1, Growth factor receptor-bound protein 2; assay: First order rate constant (kon) for human growth factor receptor bound protein 2
Target sequence in this assay (P62993 whole entry, looked up): as above

[4] = molecular target: T1, Growth factor receptor-bound protein 2; assay: Inhibitory concentration for human growth factor receptor bound protein 2
Target sequence in this assay (P62993 whole entry): as the sequence (P62993 whole entry, looked up) above

| Structure (SMILES) | k off [1] | Kd [2] | kon [3] | IC50 [4] |
| --- | --- | --- | --- | --- |
| NC(=O)C[C@H](NC(=O)C1(NC(=O)[C@@H](CC(=O)O)Cc2ccc(CP(=O)(O)O)cc2)CCCCC1)C(=O)NCCCc1cccc2ccccc12 | 0.0991 s⁻¹ | 23.8 nM | 4.18e+06 1/M1/S |  |
| NC(=O)C[C@H](NC(=O)C1(NC(=O)[C@@H](CC(=O)O)Cc2ccc(CP(=O)(O)O)cc2)CCCCC1)C(=O)NCCNc1ccc([N+](=O)[O-])c2nonc12 | 0.14 s⁻¹ | 119 nM | 1.18e+06 1/M1/S | 167 nM |
